Reference: patent publication US12371454B2, “Cyclic peptide compound having Kras inhibitory action” (priority 2019, dated 2025)
Positions of bridges follow the written chain, without caps; N, C: chain ends. Non-standard residues stand in square brackets, D forms with d. Residues, ends and D or L forms follow the SMILES beside them. *: point of attachment. hPhe(3-Cl-4-CF3) = N[C@@H](CCc1ccc(C(F)(F)F)c(Cl)c1)C(=O)O; NMeDab(N,N-(CH2CF2CH2)) = CN[C@@H](CCN1CC(F)(F)C1)C(=O)O; hPhe(4-CF3) = N[C@@H](CCc1ccc(C(F)(F)F)cc1)C(=O)O; NMePhe(4-Cl) = CN[C@@H](Cc1ccc(Cl)cc1)C(=O)O; Abu(4,4,4-F3) = N[C@@H](CC(F)(F)F)C(=O)O; NMeGly(cPent) = CN[C@H](C(=O)O)C1CCCC1; NMeCha = CN[C@@H](CC1CCCCC1)C(=O)O; Azetidine(3,3-F2) = FC1(F)CN(*)C1; NMeChg = CN[C@H](C(=O)O)C1CCCCC1; NMeF = CN[C@@H](Cc1ccccc1)C(=O)O; NMeD = CN[C@@H](CC(=O)O)C(=O)O; NMeL = CN[C@@H](CC(C)C)C(=O)O; NMeNva = CCC[C@H](NC)C(=O)O; NMeV = CN[C@H](C(=O)O)C(C)C; d(β3hA) = C[C@@H](N)CC(=O)O; Pip = O=C(O)[C@@H]1CCCCN1; NMeA = CN[C@@H](C)C(=O)O; Piperidide = C1CCN(*)CC1; Pyrrolidide = C1CCN(*)C1; Ac5c = NC1(C(=O)O)CCCC1; Aze = O=C(O)[C@@H]1CCN1; Ac3c = NC1(C(=O)O)CC1; Isopentyl = CC(C)CC*; Sar = CNCC(=O)O

What follows are compounds tested against T1, Kras and SOS1 (biotin-tagged human Kras loaded with GDP, His-tagged human SOS1) (Homo sapiens, UniProt P01116, G12D) (assay: Protein-protein interaction inhibition between Kras and SOS1 (KrasGl2D-SOS PPI) using AlphaScreen). Settings: AlphaScreen; biotin-tagged human Kras loaded with GDP, His-tagged human SOS1; read-out: KRAS G12D-SOS PPI IC50.
T1 construct: made in house; host or cells: E. coli (stated for Kras only)
T1 sequence (P01116 1-188 isoform P01116-2 G12D): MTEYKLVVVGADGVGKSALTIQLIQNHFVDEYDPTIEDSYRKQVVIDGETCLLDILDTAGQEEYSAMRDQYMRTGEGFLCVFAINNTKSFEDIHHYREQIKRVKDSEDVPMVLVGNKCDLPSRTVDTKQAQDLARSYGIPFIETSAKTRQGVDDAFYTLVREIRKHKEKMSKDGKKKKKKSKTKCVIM
Format: binding
Method in brief: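 Energy transfer from nickel-chelate donor beads bound to His-SOS1 to streptavidin acceptor beads bound to biotin-Kras, expressed in E. coli and loaded with GDP after purification, was monitored. Donors were excited at 680 nm; singlet oxygen reaching acceptors gave emission read at 520-620 nm.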
`CC[C@H](C)[C@@H]1NC(=O)[C@H](C)N(C)C(=O)C[C@@H](C(=O)N2CCCCC2)N(C)C(=O)[C@H](C(C)C)N(C)C(=O)[C@H](CC(F)(F)F)NC(=O)[C@H](CCN2CC(F)(F)C2)N(C)C(=O)[C@H](CCc2ccc(C(F)(F)F)c(Cl)c2)NC(=O)CN(C)C(=O)[C@H](CC2CCCCC2)N(C)C(=O)CN(C)C(=O)CN(C)C1=O` [Compound 1104] ([NMeA]I[Sar][Sar][NMeCha][Sar][hPhe(3-Cl-4-CF3)][NMeDab(N,N-(CH2CF2CH2))][Abu(4,4,4-F3)][NMeV][NMeD]-Piperidide; lactam N-11) gave an IC50 of 11 nM. `CC[C@H](C)[C@@H]1NC(=O)[C@H](CC(C)C)N(C)C(=O)C[C@@H](C(=O)N2CCCCC2)N(C)C(=O)[C@H](C(C)C)NC(=O)C2(CCCC2)NC(=O)[C@@H]2CCCN2C(=O)[C@H](CCc2ccc(C(F)(F)F)c(Cl)c2)NC(=O)CN(C)C(=O)[C@H](CC2CCCCC2)N(C)C(=O)[C@@H]2CCN2C(=O)[C@H](C)N(C)C1=O` [Compound 1106] ([NMeL]I[NMeA][Aze][NMeCha][Sar][hPhe(3-Cl-4-CF3)]P[Ac5c]V[NMeD]-Piperidide; lactam N-11) gave an IC50 of 35 nM. `CC[C@H](C)[C@@H]1NC(=O)[C@H](CC(C)C)N(C)C(=O)C[C@@H](C(=O)N(C)C)N(C)C(=O)[C@H](C2CCCC2)N(C)C(=O)[C@H](COC)NC(=O)[C@H](CC(=O)N2CC(F)(F)C2)N(C)C(=O)[C@H](CCc2ccc(C(F)(F)F)c(Cl)c2)NC(=O)CN(C)C(=O)[C@H](CC2CCCCC2)N(C)C(=O)[C@@H]2CCN2C(=O)[C@H](C)N(C)C1=O` [Compound 1108] ([NMeL]I[NMeA][Aze][NMeCha][Sar][hPhe(3-Cl-4-CF3)][NMeD](Azetidine(3,3-F2))S(Me)[NMeGly(cPent)][NMeD]-NMe2; lactam N-11) was tested, and the IC50 was 11 nM. `CC[C@H](C)[C@@H]1NC(=O)[C@@H]2CCCCN2C(=O)C[C@@H](C)NC(=O)[C@H](C(C)C)N(C)C(=O)[C@H](Cc2ccccc2)N(C)C(=O)[C@H](CC(C)C)N(C)C(=O)[C@H](CCc2ccc(C(F)(F)F)cc2)NC(=O)CN(C)C(=O)[C@H](Cc2ccc(Cl)cc2)N(C)C(=O)CN(C)C(=O)CN(C)C1=O` [Compound 1110] (cyclo(I[Sar][Sar][NMePhe(4-Cl)][Sar][hPhe(4-CF3)][NMeL][NMeF][NMeV][d(β3hA)][Pip])) gave an IC50 of 130 nM. For `CC[C@H](C)[C@@H]1NC(=O)[C@H](CC(C)C)N(C)C(=O)C[C@@H](C)NC(=O)[C@H](C(C)C)N(C)C(=O)C2(CC2)NC(=O)[C@@H]2CCCN2C(=O)[C@H](CCc2ccc(C(F)(F)F)c(Cl)c2)NC(=O)CN(C)C(=O)[C@H](CC2CCCCC2)N(C)C(=O)CN(C)C(=O)CN(C)C1=O` [Compound 1111] (cyclo([Ac3c][NMeV][d(β3hA)][NMeL]I[Sar][Sar][NMeCha][Sar][hPhe(3-Cl-4-CF3)]P)), the IC50 was 41 nM. In the case of `CCC[C@H]1C(=O)NC2(CCCC2)C(=O)N(C)[C@@H](C2CCCCC2)C(=O)N(C)[C@H](C(=O)N2CCCCC2)CC(=O)N(C)[C@@H](CC(C)C)C(=O)N[C@@H]([C@@H](C)CC)C(=O)N(C)[C@@H](C)C(=O)N2CC[C@H]2C(=O)N(C)[C@@H](CC2CCCCC2)C(=O)N(C)CC(=O)N[C@@H](CCc2ccc(C(F)(F)F)c(Cl)c2)C(=O)N1C` [Compound 1113] ([NMeL]I[NMeA][Aze][NMeCha][Sar][hPhe(3-Cl-4-CF3)][NMeNva][Ac5c][NMeChg][NMeD]-Piperidide; lactam N-11), the IC50 is reported as 410 nM. `CC[C@H](C)[C@@H]1NC(=O)[C@H](C)N(C)C(=O)C[C@@H](C(=O)N2CCCC2)NC(=O)[C@H](CC(C)C)N(C)C(=O)[C@H](Cc2ccccc2)N(C)C(=O)[C@H](COCCC(C)C)NC(=O)[C@H](CCc2ccc(C(F)(F)F)cc2)NC(=O)CN(C)C(=O)[C@H](Cc2ccc(Cl)cc2)N(C)C(=O)CN(C)C(=O)CN(C)C1=O` [Compound 1119] ([NMeA]I[Sar][Sar][NMePhe(4-Cl)][Sar][hPhe(4-CF3)]S(Isopentyl)[NMeF][NMeL]D-Pyrrolidide; lactam N-11) was tested, and the IC50 was 180 nM.
